# Measurements from PMC10732257 (Oncotarget, 2023).
# What was measured:
# MV-4-11 xenograft = test: Anti-tumor efficacy in subcutaneous MV-4-11 xenograft model; assay type: in vivo, female BALB/c nude mice; conditions: i.v.; GFH009 maleate 2.5, 5.0, 10.0 mg/kg QW or BIW; enitociclib 10.0 mg/kg QW; 3 weeks
# Description: Figure 6 Anti-tumor efficacy of GFH009 in MV-4-11 xenograft model. MV-4-11 xenograft in female BALB/c nude mice were treated with GFH009 or enitociclib at the indicated doses (n = 8 mice per group). Results are expressed as mean ± SEM. ^* P < 0.05, ^**** P < 0.0001, two-way ANOVA with Dunnett’s multiple comparisons test analysis compared to Vehicle control group.
# In vivo studies of tumor suppression were conducted in female BALB/c nude mice (Beijing Vital River Laboratory Animal Technology Co, Ltd., Changping, Beijing, China) bearing MV-4-11 xenografts (ATCC, Rockville, MD, USA). Each mouse was inoculated subcutaneously into the right dorsal-region with 5.0 × 10^6 cultured MV-4-11 cells in a total volume of 0.2 ml solution and allowed to develop xenograft tumors. Once tumor size had reached […], mice were divided into groups to receive 1 of 8 different treatment preparations dosed intravenously via the tail vein (Table 2). […] Enitociclib was administered as a 1.0 mg/mL solution in ultrapure water with 5% DMSO. Vehicle control was 50 mM PBS with no dissolved treatment drug.
# (§1) Animals dosed BIW were given treatments on 2 consecutive days. Weights were recorded for each mouse every day and tumor volumes assessed 3 times a week. Total treatment administration occurred across 3 consecutive weeks.
# Subcutaneous tumor volume (TV) was calculated as TV = (L × W^2)/2, where L was the length and W was the width of the tumor [11]. […] TGI was calculated as TGI (%) = (1 – avTi-0/ avCi-0)) × 100, where avTi-0 is the mean TV of the treatment group on a given day minus the mean TV of this treatment group on the day of group assignment, and avCi-0 is the mean TV of the vehicle control group on a given day minus the mean TV of the vehicle control group on the day of group assignment.
# Tumor volume data was subjected to a base-10 logarithmic transformation and subsequent comparisons of TV across groups was made using two-way ANOVA (Dunnett’s multiple comparisons test). All plotting and statistical analyses were conducted using GraphPad Prism 6.00 (GraphPad Software).
# [1] = Body weight change in MV-4-11 xenograft mice; assay type: in vivo, female BALB/c nude mice; conditions: GFH009 maleate QW or BIW; enitociclib 10.0 mg/kg QW; i.v.
# Description: Figure 7 Effect of GFH009 on body weight change in MV-4-11 xenografts. Body weight change of MV-4-11 xenograft (Figure 6) are expressed as mean ± SEM. ^* […], ^** P < 0.01, ^**** P < 0.0001, two-way ANOVA with Dunnett’s multiple comparisons test analysis compared to the vehicle-treated (control) group.
# as §1
# Relative change in body weight (RCBW) was determined as RCBW (%) = (Bwi – BW0)/BW0 × 100, where Bwi is body weight of a given mouse on a given day, and BW0 is initial body weight on the day they were assigned to a treatment group.
structure (smiles),measurement,setting,value
"COc1cc(F)ccc1-c1cc(Nc2cc(CS(C)(=N)=O)ccn2)ncc1F (centres unmarked) [enitociclib, reference compound]",Tumor growth (total volume) compared to the vehicle control,MV-4-11 xenograft,inhibited tumor growth
same,Body weight of the mice during the administration period,[1],decreased dramatically
